Results as given in the supplement of paper PMC11208160.
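Also: IS621 recombinase and bridge RNA in Escherichia coli cells.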

Experiment: recombinant barcode read abundance after kanamycin selection (control-corrected) (log10(CPM+1)); higher = more efficient recombination; sequences stand for … in AGTGCAGAGAAAATCGGCCAGTTTTCTCTGCCTGCAGTCCGCATGCCGT…AGATTTATGCAGCGGACTGCCTTTCTCCCAAAGTGATAAACCGGACAGTATCATGGACCGGTTTTCCCGGTAATCCGTATTTGCAAGGTTGGTTTCACT; site = the 11-nt target
In short: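 In a pooled screen in E. coli, targets were paired with target-binding loops of the IS621 bridge RNA. Each oligo carried a promoter, a target, a barcode and the first 104 bridge RNA bases driven by J23119, and was Gibson-cloned into a vector holding the remaining 73 bp and a T7-inducible recombinase before co-electroporation with a donor plasmid. Duplicate platings went onto chloramphenicol/ampicillin LB agar as the control or onto chloramphenicol/ampicillin/kanamycin with 0.1 mM IPTG. Recombination efficiency is the averaged, control-corrected count per million of barcodes at recombinant junctions, given as log10(CPM+1).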
With “AGATCCGCTTGGGTTCTAACCTGTTGCCT (site AGATCCGCTAG)” the “recombinant barcode read abundance (log10)” value was 1.3. With “AGATCCGCTTGGGTTCTAACCTGTTGCCT (site CGGTCCGCTAG)” the “recombinant barcode read abundance (log10)” value was 0.346. With “AGATCTCCTTGGGTTCTAACCTGTTGCCT (site AGAGCTCCTCG)” the “recombinant barcode read abundance (log10)” value was 0.231. For “AGATCTCCTTGGGTTCTAACCTGTTGCCT (site AGATCTCCTAG)”, the “recombinant barcode read abundance (log10)” value was 0.313. For “AGATGGCCTTGGGTTCTAACCTGTTGCAT (site AGATGGACTCT)”, the “recombinant barcode read abundance (log10)” value was 0.152. In the case of “AGATGGCCTTGGGTTCTAACCTGTTGCAT (site AGATGGCCTAT)”, the “recombinant barcode read abundance (log10)” value is reported as 0.991. With “AGATGTACTTGGGTTCTAACCTGTTGCTG (site ACATGTACTCT)” the “recombinant barcode read abundance (log10)” value was 0.0665. With “AGATGTACTTGGGTTCTAACCTGTTGCTG (site AGATGTACTCA)” the “recombinant barcode read abundance (log10)” value was 0.958. For “AGATTAGCTTGGGTTCTAACCTGTTGCCG (site AGATTAGCTCG)”, the “recombinant barcode read abundance (log10)” value was 1.13. In the case of “AGATTAGCTTGGGTTCTAACCTGTTGCCG (site GCGGATCCTTA)”, the “recombinant barcode read abundance (log10)” value is reported as 0.0251. With “AGATTTCCTTGGGTTCTAACCTGTTGCCT (site AAATTTCCTAG)” the “recombinant barcode read abundance (log10)” value was 0.0272. With “AGATTTCCTTGGGTTCTAACCTGTTGCCT (site ACATTTCCTAG)” the “recombinant barcode read abundance (log10)” value was 0.218. In the case of “AGATTTCCTTGGGTTCTAACCTGTTGCCT (site AGATTTCCTAG)”, the “recombinant barcode read abundance (log10)” value is reported as 0.326. In the case of “AGATTTCCTTGGGTTCTAACCTGTTGCCT (site ATATTTCCTAG)”, the “recombinant barcode read abundance (log10)” value is reported as 0.234. In the case of “AGCAACCCTTGGGTTCTAACCTGTTGCAA (site AGCAACCCTTT)”, the “recombinant barcode read abundance (log10)” value is reported as 0.829. For “AGCAACCCTTGGGTTCTAACCTGTTGCAA (site CCGGGTACTCG)”, the “recombinant barcode read abundance (log10)” value was 0.0862. In the case of “AGCACAACTTGGGTTCTAACCTGTTGCCT (site AGAACAACTAG)”, the “recombinant barcode read abundance (log10)” value is reported as 0.0799. With “AGCACAACTTGGGTTCTAACCTGTTGCCT (site AGCACAACTAG)” the “recombinant barcode read abundance (log10)” value was 0.734. In the case of “AGCACAACTTGGGTTCTAACCTGTTGCCT (site AGGACAACTAG)”, the “recombinant barcode read abundance (log10)” value is reported as 0.0445. In the case of “AGCACAACTTGGGTTCTAACCTGTTGCCT (site AGTACAACTAG)”, the “recombinant barcode read abundance (log10)” value is reported as 0.498. For “AGCAGAGCTTGGGTTCTAACCTGTTGCAG (site AGCAGAGCTCA)”, the “recombinant barcode read abundance (log10)” value was 0.631. In the case of “AGCAGAGCTTGGGTTCTAACCTGTTGCAG (site AGCAGAGCTCC)”, the “recombinant barcode read abundance (log10)” value is reported as 0.224. With “AGCAGAGCTTGGGTTCTAACCTGTTGCAG (site AGCAGAGCTCG)” the “recombinant barcode read abundance (log10)” value was 0.505. In the case of “AGCAGAGCTTGGGTTCTAACCTGTTGCAG (site AGCAGAGCTCT)”, the “recombinant barcode read abundance (log10)” value is reported as 2.24. In the case of “AGCAGAGCTTGGGTTCTAACCTGTTGCCG (site AGCAGAGCTCA)”, the “recombinant barcode read abundance (log10)” value is reported as 0.0348. For “AGCAGAGCTTGGGTTCTAACCTGTTGCCG (site AGCAGAGCTCC)”, the “recombinant barcode read abundance (log10)” value was 0.058. With “AGCAGAGCTTGGGTTCTAACCTGTTGCCG (site AGCAGAGCTCG)” the “recombinant barcode read abundance (log10)” value was 1.15. In the case of “AGCAGAGCTTGGGTTCTAACCTGTTGCCG (site AGCAGAGCTCT)”, the “recombinant barcode read abundance (log10)” value is reported as 0.465. With “AGCAGTGCTTGGGTTCTAACCTGTTGCCT (site AGCAGTGCTAG)” the “recombinant barcode read abundance (log10)” value was 0.686. For “AGCAGTGCTTGGGTTCTAACCTGTTGCCT (site AGCATTCCTAG)”, the “recombinant barcode read abundance (log10)” value was 0.0332. For “AGCATCCCTTGGGTTCTAACCTGTTGCTG (site AGCATCCCTCA)”, the “recombinant barcode read abundance (log10)” value was 1.47. With “AGCATCCCTTGGGTTCTAACCTGTTGCTG (site CATGCGACTAC)” the “recombinant barcode read abundance (log10)” value was 0.342. For “AGCCACTCTTGGGTTCTAACCTGTTGCCT (site AGCCACACTAG)”, the “recombinant barcode read abundance (log10)” value was 0.0426. With “AGCCACTCTTGGGTTCTAACCTGTTGCCT (site AGCCACCCTAG)” the “recombinant barcode read abundance (log10)” value was 0.149. In the case of “AGCCACTCTTGGGTTCTAACCTGTTGCCT (site AGCCACGCTAG)”, the “recombinant barcode read abundance (log10)” value is reported as 0.153. In the case of “AGCCACTCTTGGGTTCTAACCTGTTGCCT (site AGCCACTCTAG)”, the “recombinant barcode read abundance (log10)” value is reported as 1.49. In the case of “AGCCAGGCTTGGGTTCTAACCTGTTGCGG (site AGCCAGGCTCC)”, the “recombinant barcode read abundance (log10)” value is reported as 1.76. With “AGCCAGGCTTGGGTTCTAACCTGTTGCGG (site TCGTTTCCTAT)” the “recombinant barcode read abundance (log10)” value was 0.0575. In the case of “AGCCCTCCTTGGGTTCTAACCTGTTGCAG (site AGCCCTCCTCT)”, the “recombinant barcode read abundance (log10)” value is reported as 1.86. For “AGCCCTCCTTGGGTTCTAACCTGTTGCAG (site GAAATAACTAC)”, the “recombinant barcode read abundance (log10)” value was 0.114. With “AGCCCTCCTTGGGTTCTAACCTGTTGCAT (site AGCCCTCCTAT)” the “recombinant barcode read abundance (log10)” value was 1.41. For “AGCCCTCCTTGGGTTCTAACCTGTTGCAT (site AGCGCTCCTAC)”, the “recombinant barcode read abundance (log10)” value was 0.0462. With “AGCCCTCCTTGGGTTCTAACCTGTTGCTA (site AGCCCTCCTAA)” the “recombinant barcode read abundance (log10)” value was 0.0446.
